Results as given in PMC9332833 (Cancers, 2022).

Assays:
K562 cells [1] = assay: K562 cell cycle analysis; format: cell-based, human; details: 5 µM, after 24 h; lesser extent after 48 h
Description: BK124.1 or DMSO was added to cells and after 24 or 48 h incubation. Cells were fixed and stained with 50 µg/mL propidium iodide (Sigma-Aldrich, St. Louis, MO, USA) with 50 µg/mL DNAse-free RNase. The cell cycle was analyzed on a FACSCalibur cytometer (Becton Dickinson, Franklin Lakes, NJ, USA) using ModFit LT 3.2 software (Verity Software House, Topsham, ME, USA). […]
incubated overnight at 37 °C and analyzed using an iMark Microp late absorbance reader (Bio-Rad, Hercules, CA, USA). Results were calculated relative to control cells treated with DMSO only.
[…] CD34+ cells were plated at a concentration of 2.5 × 10^5 cells/mL in a 24-well plate. […] A f t e r a further 24 hours, cells were harvested and stained according to the manufacturer's protocol using the Annexin V-FITC kit for the detection of apoptosis (BD, Franklin Lakes, NJ, USA). Stained cells were immediately analyzed on a BD FACSCalibur using CellQuest softwa re (BD, Franklin Lakes, NJ, USA).
Cells were seeded at a concentration of 1-2 × 10^5 cells/mL in a 6-well plate. After 24 hours of pre-incubation, BK124.1 in DMSO was added to the cells (vDMSO/vmedium), and incubated for 24 or 48 hours.
After incubation, cells were washed twice with ice-cold PBS (Mg2+ and Ca2+-free), resuspended in ice-cold 70% ethanol, and placed at -20 °C for 24 hours. […]
Flow cytometry analysis of CD243 (P-glycoprotein) […]

K562 cells [2] = assay: MTT viability test, K562; format: cell-based; details: Homo sapiens, K562; MTT, 48 h
Description: CML cell line K562 CCL-243™ (BCR-ABL^+) was purchased from the ATCC® (Manassas, VA, USA). Cells were grown in RPMI 1640 medium containing HEPES (Biowest, Nuaillé, France) with 2 mM GlutaMAX (Gibco, Grand Island, NY, USA), supplemented with 10% fetal bovine serum (Sigma-Aldrich, St. Louis, MO, USA) and […] (Gibco, Grand Island, NY, USA) and 0.1 µM Vincristine (for K562-MDR1).
Cells were seeded in 96-well plates; after 24 h, medium with the appropriate drug concentration was added to each well. After 48 h, Tetrazolium Bromide (Sigma-Aldrich, St. Louis, MO, USA) was added to each well for 2–3 h. After that, cells were lysed and formazan crystals were dissolved. Absorbance was read using an iMark Microplate absorbance reader (Bio-Rad, Hercules, CA, USA). Results were calculated relative to cells treated with DMSO only. […]
Cells were seeded in 96-well plates at 7 × 10^3 cells/well in 50 µL of complete medium (for K562 or K562-MDR1) or at 50 × 10^3 cells/well in 50 µL of complete medium (CD34+ cells). After 24 hours, 50 µL of medium with the appropriate drug concentration was added to each well. The final DMSO concentration per well was 1% for K562 and K562-MDR1 and 0.1% for CD34+ cells. After 48 hours, 20 µL of Tetrazolium Bromide (Sigma-Aldrich, St. Louis, MO, USA) at a concentration of 5 mg/mL was added to each well. Cells were incubated for 2-3 hours in a cell culture incubator, and then 10% SDS with 1% HCl was added to each well to lyse the cells and dissolve the formazan crystals. Plates were […]

For `CCC12C(=O)C(CC)(C(c3ccccc3)=C1c1ccccc1)C1C(=O)N(CC(O)CNC(C)C)C(=O)C12` (centres unmarked) [BK124.1, 4-[2-hydroxy-3-(propan-2-ylamino)propyl]-1,7-diethyl-8,9-diphenyl-4-azatricyclo [5.2.1.02,6]dec-8-ene-3,5,10-trione], the Cell cycle effect (K562 cells [1]) was “profound G2/M arrest” and the IC50 (K562 cells [2]) was 2.5 µM.
